One assay addresses T1, TR-α (Homo sapiens, UniProt P10827).
T1 sequence (P10827 1-410 isoform P10827-2): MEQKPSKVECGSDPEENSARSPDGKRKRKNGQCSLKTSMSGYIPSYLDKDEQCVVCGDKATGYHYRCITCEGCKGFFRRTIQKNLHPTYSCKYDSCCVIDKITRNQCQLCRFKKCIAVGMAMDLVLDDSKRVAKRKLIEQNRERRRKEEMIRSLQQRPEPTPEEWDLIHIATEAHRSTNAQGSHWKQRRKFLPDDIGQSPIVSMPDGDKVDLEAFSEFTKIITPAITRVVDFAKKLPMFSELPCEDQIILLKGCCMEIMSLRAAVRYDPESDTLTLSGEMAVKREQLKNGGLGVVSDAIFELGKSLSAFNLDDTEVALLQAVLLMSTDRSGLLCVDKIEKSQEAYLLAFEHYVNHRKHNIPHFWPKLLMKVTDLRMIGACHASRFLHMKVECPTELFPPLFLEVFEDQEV
In words: In vitro TR-α activity (in-house protocol). As to conditions: read-out: TR-α Fold Induction w.r.t T3(100 nm); for fold induction at 0.001 µM: Conc. 1 nM; for fold induction at 0.01 µM: Conc. 10 nM; for fold induction at 0.1 µM: Conc. 100 nM; for fold induction at 1 µM: Conc. 1000 nM. Format: cell-based. The method, then:
(§1) In vitro TR-α & TR-β activities were determined as per in-house protocols and the results of representative compounds are provided in tables 1 & 2 below as a proof of the efficacies of the novel class of compounds disclosed above.

In a further assay the target is T2, TR-β (Homo sapiens, UniProt P10828).
T2 sequence (P10828 1-461): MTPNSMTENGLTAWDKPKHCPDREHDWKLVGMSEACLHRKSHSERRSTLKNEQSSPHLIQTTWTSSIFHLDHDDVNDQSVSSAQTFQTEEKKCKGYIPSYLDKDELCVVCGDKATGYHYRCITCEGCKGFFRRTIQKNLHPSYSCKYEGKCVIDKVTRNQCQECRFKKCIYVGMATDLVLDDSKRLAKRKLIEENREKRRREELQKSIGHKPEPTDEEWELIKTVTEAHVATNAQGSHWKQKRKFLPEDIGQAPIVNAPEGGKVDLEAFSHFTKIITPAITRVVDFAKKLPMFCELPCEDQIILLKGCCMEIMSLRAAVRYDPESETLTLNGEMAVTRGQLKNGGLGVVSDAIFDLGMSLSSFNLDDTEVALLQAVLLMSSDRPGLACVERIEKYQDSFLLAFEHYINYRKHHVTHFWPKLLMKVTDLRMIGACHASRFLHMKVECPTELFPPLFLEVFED
In words: In vitro TR-β activity (in-house protocol). Format: cell-based. As to conditions: read-out: TR-β Fold Induction w.r.t T3(100 nm); for fold induction at 0.001 µM: Conc. 1 nM; for fold induction at 0.01 µM: Conc. 10 nM; for fold induction at 0.1 µM: Conc. 100 nM; for fold induction at 1 µM: Conc. 1000 nM. On the procedure: as §1

Molecules are shown by their SMILES.

Turning to `CC(ON=Cc1cc(Br)c(Oc2ccc(O)c(C(O)c3ccc(Cl)cc3)c2)c(Br)c1)C(=O)O` (centres unmarked) [Example 27, 2-(((3,5-dibromo-4-(3-((4-chlorophenyl)(hydroxy)methyl)-4-hydroxyphenoxy)benzylidene)amino)oxy)propanoic acid], at TR-α, the fold induction at 0.001 µM was found to be 13.2, the fold induction at 0.01 µM was 14.4, the fold induction at 0.1 µM stood at 45.2 and the fold induction at 1 µM is 76.4. Besides, at TR-β, the fold induction at 0.001 µM turned out to be 10.1, the fold induction at 0.01 µM was determined as 16.4, the fold induction at 0.1 µM amounted to 29.1 and the fold induction at 1 µM was found to be 107.

Consider `CC(ON=Cc1cc(Br)c(Oc2ccc(O)c(Cc3ccccc3)c2)c(Br)c1)C(=O)O` (centres unmarked) [Example 16, 2-(((4-(3-benzyl-4-hydroxyphenoxy)-3,5-dibromobenzylidene)amino)oxy)propanoic acid], for which, at TR-α, the fold induction at 0.001 µM turned out to be 19.1, the fold induction at 0.01 µM was determined as 29.4, the fold induction at 0.1 µM came to 119 and the fold induction at 1 µM came to 161. At TR-β, the fold induction at 0.001 µM is 12, the fold induction at 0.01 µM came out at 31.7, the fold induction at 0.1 µM worked out at 54.3 and the fold induction at 1 µM turned out to be 70.5.

Consider `CC(ON=Cc1cc(Br)c(Oc2ccc(O)c(S(=O)(=O)N[C@@H]3C[C@H]4CC[C@@H]3C4)c2)c(Br)c1)C(=O)O` (stereo partly drawn) [Example 40, 2-(((4-(3-(N-((1R,2R,4S)-bicyclo[2.2.1]heptan-2-yl)sulfamoyl)-4-hydroxyphenoxy)-3,5-dibromobenzylidene)amino)oxy)propanoic acid], for which, at TR-α, the fold induction at 0.001 µM worked out at 10.7, the fold induction at 0.01 µM amounted to 9.07, the fold induction at 0.1 µM was 10.1 and the fold induction at 1 µM came to 16.7. For the same compound, on TR-β, the fold induction at 0.001 µM turned out to be 10.1, the fold induction at 0.01 µM was 9.01, the fold induction at 0.1 µM turned out to be 10.9 and the fold induction at 1 µM came to 36.5.

Consider `O=C(O)CON=Cc1cc(Br)c(Oc2ccc(O)c(C(=O)c3ccc(Br)cc3)c2)c(Br)c1` [Example 31, 2-(((3,5-dibromo-4-(3-(4-bromobenzoyl)-4-hydroxyphenoxy)benzylidene)amino)oxy)acetic acid], for which, on TR-α, the fold induction at 0.001 µM worked out at 13.7, the fold induction at 0.01 µM is 17.2, the fold induction at 0.1 µM is 38.3 and the fold induction at 1 µM is 39.2. Also, on TR-β, the fold induction at 0.001 µM was 11.8, the fold induction at 0.01 µM came to 14.3, the fold induction at 0.1 µM was 41.5 and the fold induction at 1 µM came out at 50.3.

In the case of `CC(ON=Cc1cc(Br)c(Oc2ccc(O)c(C(O)c3cccc(Cl)c3)c2)c(Br)c1)C(=O)O` (centres unmarked) [Example 34, 2-(((3,5-dibromo-4-(3-((3-chlorophenyl)(hydroxy)methyl)-4-hydroxyphenoxy)benzylidene)amino)oxy)propanoic acid], on TR-α, the fold induction at 0.001 µM was 14.1, the fold induction at 0.01 µM turned out to be 11.8, the fold induction at 0.1 µM was determined as 17.9 and the fold induction at 1 µM was determined as 39.8. Also, at TR-β, the fold induction at 0.001 µM came out at 10.9, the fold induction at 0.01 µM was 9.74, the fold induction at 0.1 µM worked out at 21.4 and the fold induction at 1 µM is 47.5.

With `O=C(O)CON=Cc1cc(Br)c(Oc2ccc(O)c(C(O)c3ccc(Br)cc3)c2)c(Br)c1` (centres unmarked) [Example 32, 2-(((3,5-dibromo-4-(3-((4-bromophenyl)(hydroxy)methyl)-4-hydroxyphenoxy)benzylidene)amino)oxy)acetic acid], on TR-α, the fold induction at 0.001 µM stood at 20.4, the fold induction at 0.01 µM is 16.8, the fold induction at 0.1 µM came to 22.8 and the fold induction at 1 µM was 69.8. Moreover, on TR-β, the fold induction at 0.001 µM is 11.8, the fold induction at 0.01 µM came out at 12.9, the fold induction at 0.1 µM was 14.5 and the fold induction at 1 µM is 65.

As to `CCN(CC)S(=O)(=O)c1cc(Oc2c(Br)cc(C=NOC(C)C(=O)O)cc2Br)ccc1O` (centres unmarked) [Example 38, 2-(((3,5-dibromo-4-(3-(N,N-diethylsulfamoyl)-4-hydroxyphenoxy)benzylidene)amino)oxy)propanoic acid], at TR-α, the fold induction at 0.001 µM came out at 10.1, the fold induction at 0.01 µM was 16.4, the fold induction at 0.1 µM was 25.3 and the fold induction at 1 µM is 76.2. Besides, on TR-β, the fold induction at 0.001 µM is 11.8, the fold induction at 0.01 µM is 13.6, the fold induction at 0.1 µM turned out to be 25 and the fold induction at 1 µM came out at 82.2.

As to `CC(ON=Cc1cc(Br)c(Oc2ccc(O)c(S(=O)(=O)N3CCCC3)c2)c(Br)c1)C(=O)O` (centres unmarked) [Example 42, 2-(((3,5-dibromo-4-(4-hydroxy-3-(pyrrolidin-1-ylsulfonyl)phenoxy)benzylidene)amino)oxy)propanoic acid], on TR-α, the fold induction at 0.001 µM worked out at 17.7, the fold induction at 0.01 µM turned out to be 9.9, the fold induction at 0.1 µM was found to be 20.4 and the fold induction at 1 µM was 91.4. On TR-β, the fold induction at 0.001 µM amounted to 7.3, the fold induction at 0.01 µM amounted to 4.48, the fold induction at 0.1 µM came out at 15 and the fold induction at 1 µM stood at 60.8.

For the compound `CC(C)NS(=O)(=O)c1cc(Oc2c(Br)cc(C=NOC(C)C(=O)O)cc2Br)ccc1O` (centres unmarked) [Example 37, 2-(((3,5-dibromo-4-(4-hydroxy-3-(N-isopropylsulfamoyl)phenoxy)benzylidene)amino)oxy)propanoic acid], at TR-α, the fold induction at 0.001 µM came to 11.2, the fold induction at 0.01 µM was 11.5, the fold induction at 0.1 µM was 17.6 and the fold induction at 1 µM worked out at 45.6. Further, at TR-β, the fold induction at 0.001 µM is 8.41, the fold induction at 0.01 µM came out at 9.07, the fold induction at 0.1 µM was found to be 17.7 and the fold induction at 1 µM was 60.5.

With `O=C(O)CON=Cc1cc(Br)c(Oc2ccc(O)c(C(=O)c3ccc(Cl)cc3)c2)c(Br)c1` [Example 28, 2-(((3,5-dibromo-4-(3-(4-chlorobenzoyl)-4-hydroxyphenoxy)benzylidene)amino)oxy)acetic acid], on TR-α, the fold induction at 0.001 µM worked out at 16.2, the fold induction at 0.01 µM came out at 25, the fold induction at 0.1 µM came out at 40.4 and the fold induction at 1 µM is 54.5. On TR-β, the fold induction at 0.001 µM stood at 10.2, the fold induction at 0.01 µM was 26.4, the fold induction at 0.1 µM came to 61.7 and the fold induction at 1 µM is 58.9.

Consider `CCC(ON=Cc1cc(Br)c(Oc2ccc(O)c(C(C)CC)c2)c(Br)c1)C(=O)O` (centres unmarked) [Example 19, 2-(((3,5-dibromo-4-(3-(sec-butyl)-4-hydroxyphenoxy)benzylidene)amino)oxy)butanoic acid], for which, at TR-α, the fold induction at 0.001 µM came out at 34.4, the fold induction at 0.01 µM was 80.8, the fold induction at 0.1 µM worked out at 64.2 and the fold induction at 1 µM stood at 109. At TR-β, the fold induction at 0.001 µM stood at 20.2, the fold induction at 0.01 µM came out at 69.7, the fold induction at 0.1 µM worked out at 86.2 and the fold induction at 1 µM is 90.8.

`CCc1cc(Oc2c(Br)cc(C=NOC(C)C(=O)O)cc2Br)ccc1O` (centres unmarked) [Example 25, 2-(((3,5-dibromo-4-(3-ethyl-4-hydroxyphenoxy)benzylidene)amino)oxy)propanoic acid]: on TR-α, the fold induction at 0.001 µM turned out to be 13.8, the fold induction at 0.01 µM stood at 28.5, the fold induction at 0.1 µM was determined as 79 and the fold induction at 1 µM was found to be 134. On TR-β, the fold induction at 0.001 µM is 11.5, the fold induction at 0.01 µM was found to be 37.1, the fold induction at 0.1 µM stood at 59.9 and the fold induction at 1 µM was 86.7.

On to `CCC(ON=Cc1cc(Br)c(Oc2ccc(O)c(-c3ccccc3)c2)c(Br)c1)C(=O)O` (centres unmarked) [Example 21, 2-(((3,5-dibromo-4-((6-hydroxy-[1,1′-biphenyl]-3-yl)oxy)benzylidene)amino)oxy)butanoic acid], for which, on TR-α, the fold induction at 0.001 µM turned out to be 12.8, the fold induction at 0.01 µM came out at 16.6, the fold induction at 0.1 µM came out at 50.4 and the fold induction at 1 µM came out at 105. Besides, on TR-β, the fold induction at 0.001 µM worked out at 12.9, the fold induction at 0.01 µM amounted to 18.2, the fold induction at 0.1 µM stood at 51.6 and the fold induction at 1 µM came out at 63.8.

For the origin of these results see patent publication US20110301200A1, “THYROID RECEPTOR LIGANDS” (CADILA HEALTHCARE LIMITED, priority 2008, published 2011).
